Experimental data reported in ChEMBL document CHEMBL1147519, “N-[18F]fluoroethylpiperidin-4-ylmethyl butyrate: a novel radiotracer for quantifying brain butyrylcholinesterase activity by positron emission tomography” (Bioorg Med Chem Lett, 2004).

Tests used:
[1] = Partition coefficient (logD); assay type: physicochemical; conditions: octanol/water
Homo sapiens = species: Homo sapiens; assay: The estimated hydrolysis rate in the human cerebral cortex; assay type: functional
[2] = Partition coefficient (logD) (octanol/phosphate buffer); assay type: physicochemical
[3] = target: Cholinesterase (Homo sapiens) (UniProt P06276); assay: Specificity to butyrylcholinesterase
Chain of Cholinesterase (Homo sapiens) (P06276 whole entry): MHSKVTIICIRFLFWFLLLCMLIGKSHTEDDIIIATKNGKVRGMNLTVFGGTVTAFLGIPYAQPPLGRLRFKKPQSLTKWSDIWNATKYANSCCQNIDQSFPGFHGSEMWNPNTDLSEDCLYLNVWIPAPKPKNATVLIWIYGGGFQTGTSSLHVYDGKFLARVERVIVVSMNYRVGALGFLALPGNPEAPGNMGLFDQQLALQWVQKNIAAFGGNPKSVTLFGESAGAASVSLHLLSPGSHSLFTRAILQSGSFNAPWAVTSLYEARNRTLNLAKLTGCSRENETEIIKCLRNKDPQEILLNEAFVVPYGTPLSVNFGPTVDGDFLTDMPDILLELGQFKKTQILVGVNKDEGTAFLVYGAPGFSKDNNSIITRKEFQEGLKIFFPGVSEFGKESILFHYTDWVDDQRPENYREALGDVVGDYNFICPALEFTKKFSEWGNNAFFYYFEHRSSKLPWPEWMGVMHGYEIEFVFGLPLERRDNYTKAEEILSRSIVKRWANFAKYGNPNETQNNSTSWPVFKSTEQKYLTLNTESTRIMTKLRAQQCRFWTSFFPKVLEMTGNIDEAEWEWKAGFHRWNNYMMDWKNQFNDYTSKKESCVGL

| SMILES | logD [1] | Total rate (Homo sapiens) | logD [2] | Specificity [3] |
| --- | --- | --- | --- | --- |
| CC(=O)OC1CCN(C)CC1 | -0.3 | 0.16 g⁻¹ min⁻¹ mL⁻¹ | -2.2 |  |
| CCCC(=O)OCC1CCN(CCF)CC1 | 0.62 | 0.2 g⁻¹ min⁻¹ mL⁻¹ | -1.3 | 98% |
| CCCC(=O)OC1CCN(C)CC1 | 0.21 | 0.033 g⁻¹ min⁻¹ mL⁻¹ | -2.2 | 98% |
| CCC(=O)OC1CCN(C)CC1 | -0.22 | 0.035 g⁻¹ min⁻¹ mL⁻¹ | -2.2 |  |
